Tests used:
Herg channels = tested on: Herg channels; set-up: method as in B.H. Bentzen and H. Duff, unpublished data; details: up to 10 μM; heterologous systems; ref B.H. Bentzen and H. Duff, unpublished data; cited from earlier work
Nav1.5/β1 = target: T1, Nav1.5/β1 (Homo sapiens, UniProt Q14524); assay: Two-electrode voltage clamp of Nav1.5/β1 expressed in Xenopus oocytes; format: cell-based; details: for INa I/I0: relative current at 0 mV
T1 construct: Nav1.5 (UniProt: Q14524.1); expressed in transfected cells; host or cells: Xenopus laevis oocytes (cRNA injection, Nav1.5:β1 2:1 by weight)
Description: (§1) Molecular Biology cRNA encoding Kv7.1 (UniProt: P51787), KCNE1 (UniProt: P15382.1), Nav1.5 (UniProt: Q14524.1), Nav β1 (UniProt: […]), Nav β3 (UniProt: […]), Cav1.2 (GenBank: CAA84346), Cav β3 (Uniprot: P54286), Cav β2 (Uniprot: P54288), and Cav α2δ (Uniprot: P13806) were transcribed using the mMessage mMachine T7 kit (Ambion). 50 ng of cRNA was injected into defolliculated Xenopus laevis oocytes (Ecocyte, Austin, TX): For Kv7.1/KCNE1 channel expression, we injected a 3:1, weight:weight (Kv7.1:KCNE1) cRNA ratio. For Nav1.5 channel expression, we injected a 2:1, weight:weight (Nav1.5:β1) cRNA ratio. For Cav1.2 channel expression, we injected a 2:1:1, weight:weight (Cav1.2:β3:α2δ) cRNA ratio. The exact stoichiometry for channel macromolecular complexes, including α -subunits and auxiliary subunits is not clear for many ion channels. For example, there have been multiple reported stoichiometries for Kv7.1:KCNE1 determined in heterologous expression systems with some groups reporting flexible stoichiometry of 4 Kv7.1: 1–4 KCNE1 and others reporting a fixed stoichiometry of 4 Kv7.1: 2 KCNE1 ([Murray et al., 2016]; [Nakajo et al., 2010]). The ratios of cRNA of α- and auxiliary subunits that we injected in Xenopus laevis oocytes are such that all α-subunits are assumed to be in complex with auxiliary subunits. This allows a more homogenous population of ion channels with auxiliary subunits. One caveat to expressing ion channels as macromolecular complexes is that there are many other auxiliary subunits that could associate with the channel α -subunit that are present in cardiomyocytes and have the potential to alter PUFA-induced effects, but that are not being co-expressed in our experiments. In this work, we are co-expressing some of the auxiliary subunits that have been primarily reported to associate with their respective α -subunits in cardiomyocytes. Following cRNA injection, cells were incubated for 72–96 hr in standard ND96 solution (96 mM NaCl, 2 mM KCl, 1 mM MgCl2, 1.8 mM CaCl2, 5 mM HEPES; pH = 7.5) containing 1 mM pyruvate at 16°C prior to electrophysiological recordings.
(§2) Xenopus laevis oocytes were recorded in the two-electrode voltage clamp (TEVC) configuration. Recording pipettes were filled with 3 M KCl. The recording chamber was filled with ND96 (96 mM NaCl, 2 mM KCl, 1 mM MgCl2, 1.8 mM CaCl2, 5 mM HEPES; pH 7.5). For Cav1.2/β3/α2δ channel recordings, Xenopus oocytes were injected with 50 nl of 100 mM EGTA and incubated at 10°C for 30 min prior to electrophysiological recordings in order to sequester cytosolic calcium. In addition, Cav1.2/β3/α2δ channel recordings were done in Ca^2+-free solutions, using Ba^2+ as the charge carrier, to prevent calcium-dependent inactivation of Cav1.2/β3/α2δ channels. Calcium-dependent inactivation was not studied in this work, due to the presence of large calcium-activated chloride currents present in Xenopus laevis oocytes. PUFAs were obtained from Cayman Chemical (Ann Arbor, MI.) or synthesized in house (Linköping, Sweden) through methods previously described ([Bohannon et al., 2020]) and kept at −20 °C as 100 mM stock solutions in ethanol. Serial dilutions of the different PUFAs were prepared from stocks to make 0.2 μM, 0.7 μM, 2 μM, 7 μM, and 20 μM concentrations in ND96 solutions (pH = 7.5). PUFAs were perfused into the recording chamber using the Rainin Dynamax Peristaltic Pump (Model RP-1) (Rainin Instrument Co., Oakland, CA. USA).
(§3) Electrophysiological recordings were obtained using Clampex 10.3 software (Axon, pClamp, Molecular Devices). To measure Kv7.1/KCNE1 currents we apply PUFAs as the membrane potential is stepped every 30 s from −80 mV to 0 mV for 5 s before stepping to −40 mV and back to −80 mV to ensure that the PUFA effects on the current at 0 mV reached steady state. A voltage-step protocol was used to measure the current vs. voltage (I-V) relationship before PUFA application and after the PUFA effects had reached steady state for each concentration of PUFA. […]

Cav1.2/β3/α2δ = target: T2, Cav1.2/β3/α2δ (Homo sapiens, UniProt Q13936); assay: Two-electrode voltage clamp of Cav1.2/β3/α2δ expressed in Xenopus oocytes (Ba2+ as charge carrier); format: cell-based; details: for ICa I/I0: relative current at 0 mV
T2 construct: expressed in transfected cells; host or cells: Xenopus laevis oocytes (cRNA injection, Cav1.2:β3:α2δ 2:1:1 by weight)
T2 sequence (Q13936 1-2138 isoform Q13936-20): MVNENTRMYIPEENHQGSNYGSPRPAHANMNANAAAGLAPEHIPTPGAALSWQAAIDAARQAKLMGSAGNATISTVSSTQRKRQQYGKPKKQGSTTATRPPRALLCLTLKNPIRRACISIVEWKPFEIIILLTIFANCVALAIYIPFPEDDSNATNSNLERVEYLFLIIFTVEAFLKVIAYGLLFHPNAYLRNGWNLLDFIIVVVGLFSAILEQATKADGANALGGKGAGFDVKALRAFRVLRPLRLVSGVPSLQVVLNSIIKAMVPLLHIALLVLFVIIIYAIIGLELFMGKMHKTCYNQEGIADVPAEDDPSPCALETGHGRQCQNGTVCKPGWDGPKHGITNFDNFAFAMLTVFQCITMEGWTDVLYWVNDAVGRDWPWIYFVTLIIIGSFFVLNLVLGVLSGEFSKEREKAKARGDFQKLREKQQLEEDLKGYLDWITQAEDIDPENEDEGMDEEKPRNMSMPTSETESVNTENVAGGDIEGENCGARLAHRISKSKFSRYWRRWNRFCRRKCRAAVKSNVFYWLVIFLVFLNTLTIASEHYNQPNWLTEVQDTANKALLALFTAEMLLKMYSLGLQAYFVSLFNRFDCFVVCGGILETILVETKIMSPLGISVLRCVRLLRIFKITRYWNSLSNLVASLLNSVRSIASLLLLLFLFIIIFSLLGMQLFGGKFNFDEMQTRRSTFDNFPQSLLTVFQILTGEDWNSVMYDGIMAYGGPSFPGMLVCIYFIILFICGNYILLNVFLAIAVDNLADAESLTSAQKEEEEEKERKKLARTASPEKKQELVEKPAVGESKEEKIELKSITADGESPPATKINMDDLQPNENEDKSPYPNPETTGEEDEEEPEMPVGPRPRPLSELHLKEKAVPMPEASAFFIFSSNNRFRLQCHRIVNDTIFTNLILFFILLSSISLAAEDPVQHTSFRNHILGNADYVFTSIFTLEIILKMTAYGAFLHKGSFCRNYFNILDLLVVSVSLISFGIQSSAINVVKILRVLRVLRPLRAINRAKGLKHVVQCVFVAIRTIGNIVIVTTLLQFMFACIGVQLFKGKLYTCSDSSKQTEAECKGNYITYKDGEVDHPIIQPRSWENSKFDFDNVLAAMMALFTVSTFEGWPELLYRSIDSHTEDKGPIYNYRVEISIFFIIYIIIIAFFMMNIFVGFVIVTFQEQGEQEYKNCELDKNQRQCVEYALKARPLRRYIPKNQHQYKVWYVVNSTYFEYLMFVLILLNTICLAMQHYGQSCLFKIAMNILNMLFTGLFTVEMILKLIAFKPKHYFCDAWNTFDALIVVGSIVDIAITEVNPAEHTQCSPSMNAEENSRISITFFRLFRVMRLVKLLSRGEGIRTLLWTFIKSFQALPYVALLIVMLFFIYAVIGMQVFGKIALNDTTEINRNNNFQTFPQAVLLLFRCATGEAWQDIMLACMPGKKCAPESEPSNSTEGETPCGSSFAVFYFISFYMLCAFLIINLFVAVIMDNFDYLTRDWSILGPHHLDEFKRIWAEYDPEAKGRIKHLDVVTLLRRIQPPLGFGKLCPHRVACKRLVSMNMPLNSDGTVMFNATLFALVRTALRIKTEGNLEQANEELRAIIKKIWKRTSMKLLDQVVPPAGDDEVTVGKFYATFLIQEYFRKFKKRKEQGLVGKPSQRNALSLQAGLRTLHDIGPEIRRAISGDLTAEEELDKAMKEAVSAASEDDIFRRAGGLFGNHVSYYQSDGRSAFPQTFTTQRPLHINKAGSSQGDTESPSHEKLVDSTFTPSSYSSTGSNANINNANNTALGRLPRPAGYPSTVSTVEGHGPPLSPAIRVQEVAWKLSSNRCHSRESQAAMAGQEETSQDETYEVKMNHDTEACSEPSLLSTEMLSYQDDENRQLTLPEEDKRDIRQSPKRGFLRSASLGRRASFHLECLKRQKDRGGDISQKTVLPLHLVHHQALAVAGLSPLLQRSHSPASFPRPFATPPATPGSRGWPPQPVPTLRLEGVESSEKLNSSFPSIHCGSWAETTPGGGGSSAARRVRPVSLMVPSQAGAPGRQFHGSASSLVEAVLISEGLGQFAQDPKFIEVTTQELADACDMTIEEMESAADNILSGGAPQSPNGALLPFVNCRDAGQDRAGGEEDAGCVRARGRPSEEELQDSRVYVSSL
T2 sequence (P54286 whole entry partner): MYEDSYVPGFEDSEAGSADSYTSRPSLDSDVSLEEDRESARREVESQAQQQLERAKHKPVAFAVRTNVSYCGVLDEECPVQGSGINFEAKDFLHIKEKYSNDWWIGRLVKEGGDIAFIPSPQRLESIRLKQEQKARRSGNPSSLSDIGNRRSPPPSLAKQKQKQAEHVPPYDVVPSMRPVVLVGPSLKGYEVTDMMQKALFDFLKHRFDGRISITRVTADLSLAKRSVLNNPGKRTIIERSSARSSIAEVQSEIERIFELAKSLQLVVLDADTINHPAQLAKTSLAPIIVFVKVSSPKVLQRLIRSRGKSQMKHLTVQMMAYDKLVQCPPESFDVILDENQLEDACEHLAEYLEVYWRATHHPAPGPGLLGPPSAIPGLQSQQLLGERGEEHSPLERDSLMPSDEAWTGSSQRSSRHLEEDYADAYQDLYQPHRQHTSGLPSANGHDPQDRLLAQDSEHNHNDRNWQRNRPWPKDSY
T2 sequence (P13806 27-960 partner): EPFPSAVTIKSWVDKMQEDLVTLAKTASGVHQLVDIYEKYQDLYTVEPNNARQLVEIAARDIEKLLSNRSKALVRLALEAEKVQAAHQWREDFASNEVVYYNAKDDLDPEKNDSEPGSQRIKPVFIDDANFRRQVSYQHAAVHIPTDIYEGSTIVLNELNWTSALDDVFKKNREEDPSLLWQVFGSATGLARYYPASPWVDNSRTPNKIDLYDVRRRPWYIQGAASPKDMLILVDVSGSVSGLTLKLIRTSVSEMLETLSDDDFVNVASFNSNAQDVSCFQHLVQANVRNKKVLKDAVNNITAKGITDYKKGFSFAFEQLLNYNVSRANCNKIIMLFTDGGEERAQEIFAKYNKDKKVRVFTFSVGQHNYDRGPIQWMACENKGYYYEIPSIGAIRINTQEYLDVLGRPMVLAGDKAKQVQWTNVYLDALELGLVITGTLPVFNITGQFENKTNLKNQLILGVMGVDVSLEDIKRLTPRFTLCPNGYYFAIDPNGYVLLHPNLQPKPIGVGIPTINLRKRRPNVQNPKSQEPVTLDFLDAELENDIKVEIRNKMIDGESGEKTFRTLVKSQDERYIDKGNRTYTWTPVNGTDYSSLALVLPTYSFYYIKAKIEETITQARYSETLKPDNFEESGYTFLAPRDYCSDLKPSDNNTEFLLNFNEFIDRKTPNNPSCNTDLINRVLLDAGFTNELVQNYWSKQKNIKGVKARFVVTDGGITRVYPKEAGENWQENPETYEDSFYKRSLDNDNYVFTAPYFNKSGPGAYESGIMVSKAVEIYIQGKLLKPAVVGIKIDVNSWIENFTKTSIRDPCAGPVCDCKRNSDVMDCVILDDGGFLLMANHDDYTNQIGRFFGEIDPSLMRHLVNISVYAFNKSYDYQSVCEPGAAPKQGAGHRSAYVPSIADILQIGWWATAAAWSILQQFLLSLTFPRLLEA
T2 sequence (P13806 961-1106 partner): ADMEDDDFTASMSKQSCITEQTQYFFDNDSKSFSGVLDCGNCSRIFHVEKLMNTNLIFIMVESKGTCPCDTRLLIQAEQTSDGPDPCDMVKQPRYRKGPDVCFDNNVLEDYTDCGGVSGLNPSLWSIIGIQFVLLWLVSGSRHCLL
Description: as §1, §2, §3

CCCCC/C=C\C/C=C\C/C=C\C/C=C\CCCC(=O)NCCS(=O)(=O)O [N-AT, N-arachidonoyl taurine]
effects on currents through Herg channels (Herg channels): neither N-AT nor DHA-glycine up to 10 μM had any significant effects
Gmax/Gmax0 (Nav1.5/β1; 0.2 μM): 1.0 ± 0.04
ΔV0.5 (voltage dependence of inactivation) (Nav1.5/β1; 0.2 μM): -0.2 ± 0.5 mV
INa I/I0 (Nav1.5/β1; 0.2 μM): 1.0 ± 0.09
Gmax/Gmax0 (Nav1.5/β1; 0.7 μM): 1.0 ± 0.06
ΔV0.5 (voltage dependence of inactivation) (Nav1.5/β1; 0.7 μM): 0.2 ± 1.4 mV
INa I/I0 (Nav1.5/β1; 0.7 μM): 1.0 ± 0.07
Gmax/Gmax0 (Nav1.5/β1; 2 μM): 0.7 ± 0.03
ΔV0.5 (voltage dependence of inactivation) (Nav1.5/β1; 2 μM): -5.2 ± 0.4 mV
INa I/I0 (Nav1.5/β1; 2 μM): 0.7 ± 0.08
Gmax/Gmax0 (Nav1.5/β1; 7 μM): 0.3 ± 0.04
ΔV0.5 (voltage dependence of inactivation) (Nav1.5/β1; 7 μM): –16.7 ± 3.5 mV
Gmax/Gmax0 (Nav1.5/β1; 20 μM): 0.07 ± 0.01
ΔV0.5 (voltage dependence of inactivation) (Nav1.5/β1; 20 μM): -27.5 ± 2.9 mV
INa I/I0 (Nav1.5/β1; 20 μM): 0.1 ± 0.02
Gmax/Gmax0 (Cav1.2/β3/α2δ; 0.2 μM): 0.9 ± 0.02
ΔV0.5 (voltage dependence of inactivation) (Cav1.2/β3/α2δ; 0.2 μM): 0.4 ± 0.3 mV
ICa I/I0 (Cav1.2/β3/α2δ; 0.2 μM): 0.9 ± 0.1
Gmax/Gmax0 (Cav1.2/β3/α2δ; 0.7 μM): 0.9 ± 0.1
ΔV0.5 (voltage dependence of inactivation) (Cav1.2/β3/α2δ; 0.7 μM): 0.5 ± 1.0 mV
ICa I/I0 (Cav1.2/β3/α2δ; 0.7 μM): 0.9 ± 0.1
Gmax/Gmax0 (Cav1.2/β3/α2δ; 2 μM): 0.8 ± 0.03
ΔV0.5 (voltage dependence of inactivation) (Cav1.2/β3/α2δ; 2 μM): 0.2 ± 2.2 mV
ICa I/I0 (Cav1.2/β3/α2δ; 2 μM): 0.9 ± 0.1
Gmax/Gmax0 (Cav1.2/β3/α2δ; 7 μM): 0.7 ± 0.1
ΔV0.5 (voltage dependence of inactivation) (Cav1.2/β3/α2δ; 7 μM): 0.6 ± 2.0 mV
Gmax/Gmax0 (Cav1.2/β3/α2δ; 20 μM): 0.6 ± 0.03
ΔV0.5 (voltage dependence of inactivation) (Cav1.2/β3/α2δ; 20 μM): 1.4 ± 1.7 mV
ICa I/I0 (Cav1.2/β3/α2δ; 20 μM): 0.7 ± 0.1

CCCCC/C=C\C/C=C\CC/C=C\CCCC(=O)NCCS(=O)(=O)O [Pin-taurine]
Gmax/Gmax0 (Nav1.5/β1; 0.2 μM): 1.2 ± 0.2
ΔV0.5 (voltage dependence of inactivation) (Nav1.5/β1; 0.2 μM): 1.6 ± 0.9 mV
INa I/I0 (Nav1.5/β1; 0.2 μM): 1.2 ± 0.1
Gmax/Gmax0 (Nav1.5/β1; 0.7 μM): 1.2 ± 0.2
ΔV0.5 (voltage dependence of inactivation) (Nav1.5/β1; 0.7 μM): 0.9 ± 1.1 mV
INa I/I0 (Nav1.5/β1; 0.7 μM): 1.2 ± 0.1
Gmax/Gmax0 (Nav1.5/β1; 2 μM): 1.0 ± 0.1
ΔV0.5 (voltage dependence of inactivation) (Nav1.5/β1; 2 μM): -3.0 ± 1.9 mV
INa I/I0 (Nav1.5/β1; 2 μM): 1.0 ± 0.1
Gmax/Gmax0 (Nav1.5/β1; 7 μM): 0.4 ± 0.09
ΔV0.5 (voltage dependence of inactivation) (Nav1.5/β1; 7 μM): –16 ± 2.7 mV
Gmax/Gmax0 (Nav1.5/β1; 7 μM, listed as pin-taurine): 0.4 ± 0.1
ΔV0.5 (voltage dependence of inactivation) (Nav1.5/β1; 7 μM, listed as pin-taurine): -16.0 ± 2.7 mV
INa I/I0 (Nav1.5/β1; 7 μM): 0.5 ± 0.1 (p=0.01)
INa I/I0 (Nav1.5/β1; 7 μM, listed as pin-taurine): 0.5 ± 0.1
Gmax/Gmax0 (Nav1.5/β1; 20 μM): 0.1 ± 0.02
ΔV0.5 (voltage dependence of inactivation) (Nav1.5/β1; 20 μM): -28.1 ± 2.4 mV
INa I/I0 (Nav1.5/β1; 20 μM): 0.2 ± 0.03
Gmax/Gmax0 (Cav1.2/β3/α2δ; 0.2 μM): 0.9 ± 0.1
ΔV0.5 (voltage dependence of inactivation) (Cav1.2/β3/α2δ; 0.2 μM): 2.7 ± 1.9 mV
ICa I/I0 (Cav1.2/β3/α2δ; 0.2 μM): 0.7 ± 0.1
Gmax/Gmax0 (Cav1.2/β3/α2δ; 0.7 μM): 1.0 ± 0.1
ΔV0.5 (voltage dependence of inactivation) (Cav1.2/β3/α2δ; 0.7 μM): 3.9 ± 1.9 mV
ICa I/I0 (Cav1.2/β3/α2δ; 0.7 μM): 0.8 ± 0.1
Gmax/Gmax0 (Cav1.2/β3/α2δ; 2 μM): 1.0 ± 0.1
ΔV0.5 (voltage dependence of inactivation) (Cav1.2/β3/α2δ; 2 μM): 3.7 ± 1.8 mV
ICa I/I0 (Cav1.2/β3/α2δ; 2 μM): 0.8 ± 0.1
Gmax/Gmax0 (Cav1.2/β3/α2δ; 7 μM): 0.8 ± 0.1
ΔV0.5 (voltage dependence of inactivation) (Cav1.2/β3/α2δ; 7 μM): 4.1 ± 2.2 mV
ICa I/I0 (Cav1.2/β3/α2δ; 7 μM): 0.7 ± 0.1 (p=0.02)
ICa I/I0 (Cav1.2/β3/α2δ; 7 μM, listed as pin-taurine): 0.7 ± 0.1
Gmax/Gmax0 (Cav1.2/β3/α2δ; 20 μM): 0.6 ± 0.1
ΔV0.5 (voltage dependence of inactivation) (Cav1.2/β3/α2δ; 20 μM): 6.0 ± 4.1 mV
ICa I/I0 (Cav1.2/β3/α2δ; 20 μM): 0.5 ± 0.1

CCCCC/C=C\C/C=C\CC/C=C\CCCC(=O)NCC(=O)O [Pin-glycine]
Gmax/Gmax0 (Nav1.5/β1; 0.2 μM): 1.0 ± 0.03
ΔV0.5 (voltage dependence of inactivation) (Nav1.5/β1; 0.2 μM): 0.4 ± 0.3 mV
INa I/I0 (Nav1.5/β1; 0.2 μM): 1.1 ± 0.05
Gmax/Gmax0 (Nav1.5/β1; 0.7 μM): 1.0 ± 0.03
ΔV0.5 (voltage dependence of inactivation) (Nav1.5/β1; 0.7 μM): 0.4 ± 0.6 mV
INa I/I0 (Nav1.5/β1; 0.7 μM): 1.1 ± 0.1
Gmax/Gmax0 (Nav1.5/β1; 2 μM): 0.9 ± 0.04
ΔV0.5 (voltage dependence of inactivation) (Nav1.5/β1; 2 μM): -0.3 ± 0.7 mV
INa I/I0 (Nav1.5/β1; 2 μM): 1.0 ± 0.1
Gmax/Gmax0 (Nav1.5/β1; 7 μM): 0.7 ± 0.08
ΔV0.5 (voltage dependence of inactivation) (Nav1.5/β1; 7 μM): –4.7 ± 1.9 mV
Gmax/Gmax0 (Nav1.5/β1; 7 μM, listed as pin-glycine): 0.7 ± 0.1
ΔV0.5 (voltage dependence of inactivation) (Nav1.5/β1; 7 μM, listed as pin-glycine): -4.8 ± 1.9 mV
INa I/I0 (Nav1.5/β1; 7 μM): 0.7 ± 0.1 (p=0.09)
INa I/I0 (Nav1.5/β1; 7 μM, listed as pin-glycine): 0.7 ± 0.1
Gmax/Gmax0 (Nav1.5/β1; 20 μM): 0.3 ± 0.1
ΔV0.5 (voltage dependence of inactivation) (Nav1.5/β1; 20 μM): -17.8 ± 4.2 mV
INa I/I0 (Nav1.5/β1; 20 μM): 0.3 ± 0.1
Gmax/Gmax0 (Cav1.2/β3/α2δ; 0.2 μM): 0.9 ± 0.1
ΔV0.5 (voltage dependence of inactivation) (Cav1.2/β3/α2δ; 0.2 μM): -3.2 ± 3.0 mV
ICa I/I0 (Cav1.2/β3/α2δ; 0.2 μM): 0.7 ± 0.1
Gmax/Gmax0 (Cav1.2/β3/α2δ; 0.7 μM): 0.9 ± 0.1
ΔV0.5 (voltage dependence of inactivation) (Cav1.2/β3/α2δ; 0.7 μM): -3.3 ± 3.4 mV
ICa I/I0 (Cav1.2/β3/α2δ; 0.7 μM): 0.8 ± 0.1
Gmax/Gmax0 (Cav1.2/β3/α2δ; 2 μM): 0.9 ± 0.1
ΔV0.5 (voltage dependence of inactivation) (Cav1.2/β3/α2δ; 2 μM): -4.3 ± 4.1 mV
ICa I/I0 (Cav1.2/β3/α2δ; 2 μM): 0.8 ± 0.1
Gmax/Gmax0 (Cav1.2/β3/α2δ; 7 μM): 0.8 ± 0.1
ΔV0.5 (voltage dependence of inactivation) (Cav1.2/β3/α2δ; 7 μM): −3.1 ± 4.2 mV
Gmax/Gmax0 (Cav1.2/β3/α2δ; 7 μM, listed as pin-glycine): 0.8 ± 0.2
ΔV0.5 (voltage dependence of inactivation) (Cav1.2/β3/α2δ; 7 μM, listed as pin-glycine): -3.1 ± 4.2 mV
ICa I/I0 (Cav1.2/β3/α2δ; 7 μM): 0.8 ± 0.1 (p=0.26)
ICa I/I0 (Cav1.2/β3/α2δ; 7 μM, listed as pin-glycine): 0.8 ± 0.1
Gmax/Gmax0 (Cav1.2/β3/α2δ; 20 μM): 0.7 ± 0.2
ΔV0.5 (voltage dependence of inactivation) (Cav1.2/β3/α2δ; 20 μM): -3.4 ± 5.6 mV
ICa I/I0 (Cav1.2/β3/α2δ; 20 μM): 0.6 ± 0.2
